Results reported in a melting point compilation (Tetko et al.; mined from patent text by program, amines drawn as free bases though some values may be those of a salt).
Residues, ends and D or L forms follow the SMILES beside them. *: point of attachment. Boc = CC(C)(C)OC(=O)*; OBn = c1ccc(CO*)cc1; βAla = NCCC(=O)O

Structure (SMILES) | melting point [°C]
C=CC12CCc3cc(O)ccc3C1=CCC1(C)C(O)CCC21 (stereo unspecified) | 149 to 150
CC(C)[C@H]1C[C@@H]([C@H](CC2CCCCC2)NC(=O)OCc2ccccc2)OC1=O | 117 to 118
COc1cc2c(cc1OC)CN(CCCNS(=O)(=O)c1cc(Cl)c(F)cc1F)CC2 | 110 to 112
CC(=O)Nc1cc(C)cc(Br)n1 | 190
O=c1cc(-c2ccccc2)oc2c(C=S)cccc12 | 153 to 157
COC(=O)c1cc2cc(OC)c(OC)cc2c(-c2ccnc(-n3c(=O)cc(NCCCn4ccnc4)c4ccccc43)c2)c1C(=O)OC | 142 to 148
Cc1c(C#N)c(-c2ccc(C#N)cc2)c(C)n1Cc1cnc(Cl)c(COC(=O)CCC(=O)O)c1 | 187 to 188
CC(C)NC(=O)c1nc(-c2cccc(Cl)c2)c(-c2ccc(=O)n(C(C)C)n2)s1 | 105 to 106
COC(=N)N1CCC(c2nn(-c3ccc(C(F)(F)F)cc3)c3ccccc23)CC1 | 113 to 115
CC1CN(C)CC(NC(=O)c2n[nH]c3ccccc23)CN1Cc1ccccc1 (stereo unspecified) | 164 to 165
COC(=O)C(C)Oc1cc(C)ccc1C=O (stereo unspecified) | 65 to 68
Cc1cnn(-c2ccc(C(=O)N3Cc4cccn4Cc4ccccc43)cc2)c1 | 179 to 181
COc1ccc(C2(O)C(=O)Nc3ccc(Cl)cc32)cc1 (stereo unspecified) | 202
CCc1cc(OCc2ccc(-c3ccccc3-c3nnn(C(c4ccccc4)(c4ccccc4)c4ccccc4)n3)cc2)c2c(n1)CCN(C(C)=O)C2 | 97 to 98
Cc1cc(OCCOc2ccc3ccccc3c2)ccc1C(=O)C(=O)O | 129 to 131
O=C1[C@H]2CCC[C@H]2N(C(=O)CCCCl)c2ccccc2N1Cc1ccccc1 (relative stereo) | 169 to 170
CCCCCC(CC(=O)Nc1cc(C(N)=O)ccc1C(C)(C)C)c1ccc(OCCC(N)S(C)(=O)=O)cc1OC (stereo unspecified) | 77 to 79
NCC(=O)N(Nc1nncc(-c2ccccc2)n1)C(=O)OCc1ccccc1 | 166 to 167
O=Cc1cn([C@H]2CCc3c(F)cc(F)cc3C2)c(=S)[nH]1 | > 285
CCOC(=O)Cn1nc(-c2ccc(C)cc2)c(C(N)=O)c1N | 179
COc1ccc(CSc2ccc(OCC(=O)O)c3c2CCC3)cc1OCc1ccc(C(F)(F)F)cc1 | 150 to 151
CC(C)(CCCSCSCCCC(C)(C)C(=O)O)C(=O)O | 72 to 72.5

Structure (SMILES) | melting point [°C]
Cc1cnc(-c2cc(F)ccc2CNC(=O)c2nc3n(c(=O)c2OCc2ccccc2)CCOC3(C)C)o1 | 186
COc1cc2c(cc1OC)CN(CCN(C)Cc1ccc(NC(=O)c3cccc4c(=O)c5cccc(OC)c5[nH]c34)cc1)CC2 | 202
O=c1c(Cl)nc2ccc(C(F)(F)F)cc2n1OCc1ccccc1 | 148 to 150
CCOC(=O)CNCc1cccc(-c2c(CC(=O)Nc3ccc(F)cc3C(F)(F)F)c(=O)oc3cc(Cl)c(C)cc23)c1 | 153 to 155
N#Cc1cnn2c(C(F)(F)F)cc(-c3ccccc3F)nc12 | 165
CC(C)(C)c1cc(C=Cc2ccccc2O)on1 | 152 to 155
COC1=C(OC)C(=O)C(CN2CCN(C(=S)SC)CC2)=C(C)C1=O | 115 to 116
CCOC(=O)C(=O)N1Cc2cc(OC)ccc2C(Cc2c(Cl)cncc2Cl)=N1 | 140 to 142
O=C1COc2ccc(Br)cc2N1O | 201 to 204
COC(=O)CCn1cc(C2=C(c3cn(C)c4ccccc34)C(=O)NC2=O)c2ccccc21 | 209 to 211
CCNC(=O)C(c1ccccc1)N1CCN(c2ccc(NC(=O)c3ccccc3-c3ccc(C(F)(F)F)cc3)cc2)CC1 (stereo unspecified) | 123
CN(C)Cc1cnc2n1-c1ccc(Br)cc1C(c1ccccn1)=NC2 | 200 to 202
O=C(COc1ncc(Cl)cc1Cl)Nc1ccccc1 | 164 to 166
Cc1ccc(F)cc1C(=O)Nc1ccc(C(=O)N2CCc3cn[nH]c3-c3sccc32)c(Cl)c1 | 310 to 312
COc1cc(Cc2n[nH]c3c2c(=O)n(-c2ccccc2)c2ncccc32)cc(OC)c1 | 258 to 259
C[C@H](NC(=O)OCc1ccccc1)C(=O)N1CCC[C@H]1C(=O)NC1CCCC1 | 118 to 119
CCOC(=O)CCc1cn(Cc2cc(OCc3ccccc3)cc(OCc3csc(-c4cnccn4)n3)c2)cc1-c1ccccc1 | 126 to 127
CCOC(=O)c1cc(O)c2c(OC(C)C)ccc(Br)c2c1 | 106
COc1cccc(Cc2nc3n(-c4c(Cl)cc(C=O)cc4Cl)[nH]c(C(C)C)c-3c(=O)n2)c1 | 212 to 214
Cc1ncc(CN2CCc3cc(-c4ccc(Cl)cc4)ccc3C2)c(N)n1 | 205 to 208
CNC(=O)NCC(C)(C)N | 150
O=C(O)CCCOc1ccccc1OCCC(c1ccccc1)(c1ccccc1)c1ccccc1 | 107 to 108

More lines, now with the values ahead:

melting point [°C] | Structure (SMILES)
105 to 107 | CCCCC(CNc1nc(C)c(OC(=O)OCC)c(C)n1)c1ccccc1 (stereo unspecified)
195 to 196 | Cc1nc(N)c2ncn(CCOCc3ccncc3)c2c1C
> 300 | O=[N+]([O-])c1ccc(-c2cnn3c(O)ncnc23)cc1
153 to 155 | O=C(c1ccc(-c2ccc(O)cc2)cc1)C1CC=CC1
206 to 207 | CCCCc1ncc(/C(C)=C(\Cc2ccccc2)C(=O)O)n1Cc1ccccc1Cl
262 to 265 | CCOC(=O)c1cn2c3c(cc(F)cc3c1=O)C(=O)CC2C (stereo unspecified)
140 | O=C(Nc1ccccc1S(=O)(=O)N1CCCCC1)N[C@@H](Cc1ccc(Oc2nccc3cnccc23)cc1)C(=O)O
124 to 125 | CC(C)(C)OC(=O)NCCC(=O)NC(CC(=O)OCc1ccccc1)C(=O)NC(Cc1ccccc1)C(=O)OCc1ccccc1 (stereo unspecified) ({Boc-βAla}-Asp(OBn)-Phe-OBn; configuration not given here)
124 to 126 | CC(C)N1CCC(C2c3ccccc3C=Cc3ccccc32)CC1
210 to 211 | O=C(O)c1cccc2ccc(CBr)cc12
205 to 206 | O=C1NC2Cc3ccccc3C2O1 (stereo unspecified)
113 to 115 | COc1ccc(C(=O)O)c(OCc2ccc(OCCc3nc(-c4ccccc4)oc3C)cc2)c1
100 to 102 | COC=C(C(=O)OC)c1cnc(C)nc1Oc1cccc(C(F)(F)F)c1
> 300 | O=c1[nH]c2cc(-c3ccncc3)c(C(F)(F)F)nc2[nH]1
70 to 75 | CCOC(=O)c1cc(=O)c2c(OCC(O)COc3cccc(C(F)(F)F)c3)cccc2o1 (stereo unspecified)
130 to 131 | C#CCOC(=O)c1ccc(SC(C)CCCC(C)C)cc1 (stereo unspecified)
137 to 159 | COc1cc2cc3c(Nc4ccc(F)c(Cl)c4)c(C#N)cnc3cc2cc1OCCCl
151 to 153 | C=CCOc1cc(C(=O)OCC)nc2c(CCC)c3oc(C(=O)OCC)cc(=O)c3cc12
284 to 285 | CN1C(C(=O)Nc2ccc(F)cc2)=C(O)c2ccc3ccccc3c2S1(=O)=O
126 to 128 | O=C(C=Cc1ccc(O)c(O)c1)OCCc1ccccc1
167 to 170 | O=C(O)C1CCCCC1C(=O)CCSSCCC(=O)C1CCCCC1C(=O)O (stereo unspecified)
> 260 | O=C(O)Cc1cc(C(=O)C=Cc2ccc(C(=O)O)cc2)ccc1O
